The source of these data is paper PMC3532055 (Journal of medicinal chemistry, 2012).

Broadly, the Ki is the dissociation constant of the complex between target and ligand, obtained from inhibition or displacement.

For one assay, the system named is BALB/cJ male mice. Put plainly: Mouse forced swim test. The conditions noted are these: vs vehicle.
Another assay concerns the target human α7-nAChRs. The conditions noted are these: read-out: Ki human α7-nAChRs; cited from earlier work.
The target of assay [1] is T1, α7-nAChRs (Rattus norvegicus, UniProt Q05941). Kind of assay: Binding test at α7-nAChRs.
In assay [2] the target is T1, α7-nAChRs. Kind of assay: Binding test at α7*-nAChRs. The following applies: endogenous receptors prepared from rat forebrain.
A further assay concerns the target α2β2 (Rattus norvegicus, UniProt P12389+P12390). Put plainly: [3H]epibatidine competition binding, rat α2β2 nAChR. The following applies: read-out: Ki α2β2, ± SEM.
Where [3] appears, read: 5, 10, and 30 mg/kg ip, 30 min before 6 min trial.

Molecules are shown by their SMILES.

For `CN[C@H]1CC[C@@H](c2ccc(Cl)c(Cl)c2)c2ccccc21` [sertraline, reference compound], the “immobility in the mouse forced swim test” value in the assay on BALB/cJ male mice (20 mg/kg ip, positive control) was “expected decrease in immobility”.
With `FCCCc1cc(-c2cncc(OC[C@@H]3CCN3)c2)on1` [Compound 26, 3-(2(S)-Azetidinylmethoxy)-5-[3-(3-fluoropropyl)-5-isoxazolyl]pyridine], the “immobility in the mouse forced swim test” value with BALB/cJ male mice (setting [3]) is reported as “reduced immobility”.
Take `c1cncc(OC[C@@H]2CCN2)c1` [Compound A-85380, 3-(2(S)-azetidinylmethoxy) pyridine]: the inhibitory constant (Ki) at human α7-nAChRs was 148 nM.
As to `FC(F)CCc1cc(-c2cncc(OC[C@@H]3CCN3)c2)on1` [Compound 25, 3-(2(S)-Azetidinylmethoxy)-5-[3-(3,3-difluoropropyl)-5-isoxazolyl]pyridine], on α7-nAChRs [1], the “activity at α7-nAChRs” value is given as “no activity”. Moreover, the “activity at α7*-nAChRs” value at α7-nAChRs [2] was “no activity”. Besides, the “immobility in the mouse forced swim test” value in the assay on BALB/cJ male mice (setting [3]) is on record as “reduced immobility”.
With `CCc1cc(-c2cncc(OC[C@@H]3CCN3)c2)on1` [Compound 38, 3-(2(S)-Azetidinylmethoxy)-5-(3-ethyl-5-isoxazolyl)pyridine], the “activity at α7-nAChRs” value at α7-nAChRs [1] is “no activity”. Moreover, at α7-nAChRs [2], the “activity at α7*-nAChRs” value is on record as “no activity”. For the same molecule, the “immobility in the mouse forced swim test” value with BALB/cJ male mice (1, 3, 5, 10, and 30 mg/kg ip, 30 min before 6 min trial) is “reduced immobility”.
In the case of `c1ncc(-c2cc(CCN3CCOCC3)no2)cc1OC[C@@H]1CCCN1` [Compound 28, 4-[2-[5-[5-(2(S)-Pyrrolidinylmethoxy)-3-pyridinyl]-3-isoxazolyl]ethyl]morpholine], on α2β2, the Ki turned out to be 74 ± 13 nM.
Still for that read-out and setting: the value for `c1ncc(-c2cc(CCN3CCOCC3)no2)cc1OC[C@@H]1CCN1` [Compound 27, 4-[2-[5-[5-(2(S)-Azetidinylmethoxy)-3-pyridinyl]-3-isoxazolyl]ethyl]morpholine] was 12.3 ± 2.1 nM.
Regarding `OCCc1cc(-c2cncc(OC[C@@H]3CCN3)c2)on1` [Compound 13, 2-[5-[5-((S)Azetidin-2-ylmethoxy)-3-pyridinyl]-3-isoxazolyl]ethanol], the “activity at α7-nAChRs” value on α7-nAChRs [1] is given as “no activity”. The “activity at α7*-nAChRs” value on α7-nAChRs [2] is “no activity”.
